Measured values: paper PMC5012620, “Blocking the Interactions between Calcium-Bound S100A12 Protein and the V Domain of RAGE Using Tranilast” (PLoS ONE, 2016)

Key:
S100A12 = biological target: T1, S100A12 (Homo sapiens, UniProt P80511); assay: fluorescence titration (tranilast emission, excitation […] nm); 1H-15N HSQC NMR titration; format: binding
T1 sequence (P80511 2-92): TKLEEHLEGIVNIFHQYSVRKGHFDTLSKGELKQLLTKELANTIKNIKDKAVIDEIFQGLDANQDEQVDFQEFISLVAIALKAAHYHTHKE

RAGE V domain V domain = biological target: T2, RAGE V domain V domain (Homo sapiens, UniProt Q15109); assay: fluorescence titration (Trp)
T2 chain: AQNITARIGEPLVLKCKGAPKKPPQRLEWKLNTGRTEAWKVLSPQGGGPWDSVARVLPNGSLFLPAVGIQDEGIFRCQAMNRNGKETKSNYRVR

Molecule: COc1ccc(/C=C/C(=O)Nc2ccccc2C(=O)O)cc1OC [tranilast]
- Kd (S100A12): 6.1 ± 1.4 µM

B1: S100A12 (protein)
chain: T1 sequence (P80511 2-92)
modifications: Ca2+
- Kd (RAGE V domain V domain): ~3.1 µM
